{"source": "patent US7928128B2", "about": "“Use of(R)-(−) -2-[5-(4-fluorophenyl)-3-pyridylmethylaminomethyl]-chromane and its physiologically acceptable salts” (Merck Patent Gesellschaft mit beschrankter Haftung, priority 2000, dated 2011)", "key": {"rats": {"tested_on": "rats", "test": "Catalepsy induction in rats (extrapyramidal motor side effects)", "type": "in vivo, rat", "conditions": "doses up to 500 fold higher compared to the doses effective in the animal models", "protocol": "(§1) Extrapyramidal motor side effects in e.g. rodents are measured by the ability of a drug to induce catalepsy. Catalepsy is defined as a state where an animal continues to remain in an unnormal (nonphysiological 'uncomfortable') posture for a long time ([…] and S. D. Glick, Neuropharmacology, 1996; 15: 393-394; […] P. Janssen, Life Sci., 1979, […]). For example, if a hindpaw of a rat is placed on an elevated level, e.g. a platform elevated 3 cm above ground level, a normal rat immediately withdraws the hindpaw from the platform to the ground level. A cataleptic rat remains in this unnatural posture even for minutes."}, "5-HT1A receptor [1]": {"molecular_target": "T1, 5-HT1A receptor (Homo sapiens, UniProt P08908)", "T1 sequence (P08908 whole entry)": "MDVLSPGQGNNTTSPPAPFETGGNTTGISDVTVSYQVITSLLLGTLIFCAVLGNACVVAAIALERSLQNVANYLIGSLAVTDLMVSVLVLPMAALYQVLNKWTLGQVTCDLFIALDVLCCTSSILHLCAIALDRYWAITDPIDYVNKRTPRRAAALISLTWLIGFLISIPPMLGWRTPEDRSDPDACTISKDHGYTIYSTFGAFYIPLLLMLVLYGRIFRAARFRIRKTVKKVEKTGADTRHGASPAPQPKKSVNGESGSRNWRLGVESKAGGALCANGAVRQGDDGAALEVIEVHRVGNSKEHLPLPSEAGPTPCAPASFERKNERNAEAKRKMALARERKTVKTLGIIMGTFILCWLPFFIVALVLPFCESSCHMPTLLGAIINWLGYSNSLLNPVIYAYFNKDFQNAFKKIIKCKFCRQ", "test": "biochemical"}, "[2]": {"tested_on": "reserpinized rat or mouse", "test": "Reserpinized rat or mouse (akinesia)", "type": "in vivo", "conditions": "24 h after reserpine", "protocol": "A typical animal model is the reserpinized rat or mouse (e.g. […]. Neural Transm.-Park. Dis. Dement. Sect., 1994; 7: 133-142; M. Gossel et al., J. Neural Transm.-Park. Dis. Dement. Sect., 1995; 10: 27-39; N. R. Hughes et al., Mov. Disord., 1998; 13: 228-233). Reserpine is a potent depleter of monoamines and produces nearly complete akinesia in both species. Prominent 24 h after application, the distance traveled and the time active is nearly zero as measured in conventional activity meters."}, "[3]": {"tested_on": "neuroleptics-induced muscle rigidity in rats", "test": "Neuroleptics-induced muscle rigidity in rats", "type": "in vivo, rat", "conditions": "resistance to passive flexion and extension of the hind limb", "from_the_text": "A typical animal model is neuroleptics-induced muscle rigidity in rats according to S. Wolfarth et al., Arch. Pharmacol. 1992; 345: 209-212. Rats are challenged with the conventional neuroleptic drug haloperidol which enhances muscle tone. Muscle tone is electromechanically measured as the resistance to passive flexion and extension of the hind limb."}, "[4]": {"tested_on": "catalepsy induced by conventional antidopaminergic drugs such as haloperidol", "test": "Catalepsy induced by conventional antidopaminergic drugs such as haloperidol", "type": "in vivo", "conditions": "same dose-range as effective in the animal models", "protocol": "as §1"}, "dopamine D3 receptor": {"molecular_target": "dopamine D3 receptor (Homo sapiens, UniProt P35462)", "sequence (P35462 whole entry, species assumed)": "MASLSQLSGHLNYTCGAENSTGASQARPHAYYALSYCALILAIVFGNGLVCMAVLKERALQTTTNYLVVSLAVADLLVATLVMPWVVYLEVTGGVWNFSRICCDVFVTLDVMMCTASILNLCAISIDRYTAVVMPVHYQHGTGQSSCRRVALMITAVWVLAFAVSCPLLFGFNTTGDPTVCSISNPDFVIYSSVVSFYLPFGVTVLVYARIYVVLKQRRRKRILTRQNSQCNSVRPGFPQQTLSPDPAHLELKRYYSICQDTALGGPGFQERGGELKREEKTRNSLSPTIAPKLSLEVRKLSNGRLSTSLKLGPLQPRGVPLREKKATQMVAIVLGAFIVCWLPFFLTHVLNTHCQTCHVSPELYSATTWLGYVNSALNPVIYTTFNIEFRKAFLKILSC"}, "[5]": {"tested_on": "neuroleptics sensitized monkey", "test": "Neuroleptics sensitized monkey, haloperidol challenge", "type": "in vivo", "conditions": "given after haloperidol challenge; scoring system", "from_the_text": "Another typical animal model is the neuroleptics sensitized monkey according to D. E. Casey, Psychopharmacology, 1996; 124: 134-140. Monkeys treated repeatedly with conventional neuroleptics are highly sensitive to a subsequent challenge dose of neuroleptic drugs. When challenged, the monkeys immediately show extrapyramidal motor side effects such as dystonia, dyskinesias, akathisia, and bradykinesia which are rated by a scoring system. The conventional neuroleptic drug haloperidol is given as a challenge."}, "[6]": {"tested_on": "Parkinsonian cynomolgus monkey", "test": "MPTP Parkinsonian cynomolgus monkey, Laval University Disability Scale", "type": "in vivo", "conditions": "MPTP monkeys", "from_the_text": "A typical animal model for idiopathic Parkinson's disease is the Parkinsonian cynomolgus monkey according to P. J. Blanchet et al., Exp. Neurology 1998; 153: 214-222. Monkeys render parkinsonian by repeated injections of 1-methyl-4-phenyl-1,2,3,6-tetrahydropyridine (MPTP). Parkinsonian symptoms are qualitatively assessed by the use of the Laval University Disability Scale (B. Gomez-Mancilla et al., 1993; Mov. Disord. 8: 144-150) measuring the following symptoms: posture, mobility, climbing, gait, holding food, vocalizing, grooming, social interaction."}, "D2": {"molecular_target": "D2 (Homo sapiens, UniProt P14416)", "sequence (P14416 whole entry)": "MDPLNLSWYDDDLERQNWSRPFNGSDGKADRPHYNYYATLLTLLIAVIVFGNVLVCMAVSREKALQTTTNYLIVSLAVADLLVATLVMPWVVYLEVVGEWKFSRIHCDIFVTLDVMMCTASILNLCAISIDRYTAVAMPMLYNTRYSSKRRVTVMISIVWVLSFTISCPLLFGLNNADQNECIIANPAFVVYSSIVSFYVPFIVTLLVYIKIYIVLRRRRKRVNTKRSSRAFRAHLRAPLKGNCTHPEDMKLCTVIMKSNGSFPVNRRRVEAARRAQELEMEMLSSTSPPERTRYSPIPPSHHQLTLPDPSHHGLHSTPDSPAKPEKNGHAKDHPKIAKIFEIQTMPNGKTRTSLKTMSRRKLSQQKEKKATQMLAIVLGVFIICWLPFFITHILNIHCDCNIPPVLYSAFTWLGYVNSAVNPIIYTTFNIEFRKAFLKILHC", "test": "D2 antagonism", "conditions": "under increased doses"}, "[7]": {"tested_on": "oxotremorine-induced tremor", "test": "Oxotremorine-induced tremor", "type": "in vivo", "conditions": "rating scale", "protocol": "A typical animal model for drug-induced tremors is the oxotremorine-induced tremor (e.g. H. Hallberg and O. Almgren, Acta Physiol. Scand., 1987; 129: 407-13; J. G. Clement and W. R. Dyck, J. Pharmacol. Meth., 1989; 22: 25-36). Oxotremorine induces tremor which is measured by a rating scale. (R)-(−)-2-[5-(4-fluoro-phenyl)-3-pyridyl-methyl-amino-methyl]-chromane or one of its pharmaceutically acceptable salt inhibited oxotremorine-induced tremors."}, "[8]": {"tested_on": "striatonigral degeneration approach in the rat", "test": "Striatonigral degeneration in the rat (6-hydroxydopamine plus quinolinic acid), turning behavior", "type": "in vivo", "conditions": "automated recorder", "from_the_text": "Another more recent animal model is the striatonigral degeneration approach in the rat according to […] et al., J. Neural Transm. Suppl., 1999; 55: 103-113. Rats receive an unilateral injection of 6-hydroxydopamine into the left medial forebrain bundle followed by an injection of quinolinic acid into the ipsilateral striatum inducing nigrostriatal degeneration. The degeneration results in turning behavior to a challenge with dopaminomimetics such as apomorphine or amphetamine. Turning behavior is measured by an automated recorder."}, "5-HT1A receptor [9]": {"molecular_target": "T1, 5-HT1A receptor", "conditions": "in contrast to buspirone"}, "[10]": {"tested_on": "posthypoxic myoclonus, rats", "test": "Posthypoxic myoclonus in rats", "type": "in vivo, rat", "conditions": "after cardiac arrest for 8 minutes", "protocol": "A typical animal model for myoclonus is myoclonus induced by an acute hypoxic episode according to D. D. Truong et al., Mov. Disord., 1994; 9: 201-206). In this model of posthypoxic myoclonus, rats undergo a cardiac arrest for 8 minutes and are resuscitated thereafter. Myoclonic jerks occur spontaneously but can be provoked by auditory stimulation, too, worsening over the days following cardiac arrest."}, "mutant dystonic hamster": {"tested_on": "mutant dystonic hamster", "test": "Mutant dystonic hamster", "type": "in vivo", "conditions": "scoring system", "from_the_text": "A typical animal model is the mutant dystonic hamster according to A. Richter and W. Löscher, Prog. Neurobiol. 1998; 54: 633-677. In this genetically dystonic hamsters, dystonic attacks are provoked by taking the animal from the home cage and placing it on a balance. The dystonic syndrome consists of a sequence of abnormal movements, and the severity of the single symptoms is rated by a scoring system."}, "Weaver mutant mouse": {"tested_on": "Weaver mutant mouse", "test": "Weaver mutant mouse (locomotor activity)", "type": "in vivo", "conditions": "activity cages", "from_the_text": "(§2) Typical genetic models in mutant animals are the Campus Syndrome in the Pietrain pig according to A. Richter et al. (Exp. Neurology, 1995; 134: 205-213) or the Weaver mutant mouse according to J. R. Simon and B. Ghetti (Mol. Neurobiol., 1994; 9: 183-189). In the Campus Syndrome model, these mutant pigs show a high-frequency tremor when standing and during locomotion, but not while lying at rest. Assessment of tremor is made by accelerometric recording. In the Weaver mutant mouse, degenerative cerebellar atrophy is fould in association with tremor, gait instability, and toppling over the sides after a few steps."}, "[11]": {"tested_on": "systemic 3-nitropropionic acid (3-NP) model in rats", "test": "Systemic 3-nitropropionic acid (3-NP) model in rats, nocturnal activity", "type": "in vivo, rat", "source_text": "A typical animal model is the systemic 3-nitropropionic acid (3-NP) model in rats according to C.\nAfter two injections of 3-NP, rats display nocturnal hyperactivity reflecting symptoms of early Huntington's disease, whereas rats treated with four injections of 3-NP display nocturnal akinesia (hypoactivity) reflecting symptoms of late Huntington's disease. Nocturnal activity is automatically measured in conventional activity cages by infrared beams."}, "[12]": {"tested_on": "Parkinsonian cynomolgus monkey", "test": "MPTP Parkinsonian cynomolgus monkey chronically treated with I-dopa (adverse effects of anti-Parkinsonian drugs)", "type": "in vivo", "conditions": "MPTP monkeys, long-term I-dopa", "protocol": "Treatment of adverse effects of conventional anti-Parkinsonian drugs as defined above are determined in a modification of the animal model of the Parkinsonian cynomolgus monkey according to P. J. Blanchet et al., Exp. Neurology 1998; 153: 214-222. Monkeys render parkinsonian by repeated injections of 1-methyl-4-phenyl-1,2,3,6-tetrahydropyridine (MPTP). The Parkinsonian monkeys are chronically treated with the standard I-dopa therapy according to P. J. Blanchet et al., Mov. Disord., 1998; 13: 798-802. Longterm treatment with I-dopa induces extrapyramidal motor side effects and psychotic states which are both qualitatively and quantitatively, assessed by the Abnormal Involuntary Movement Scale (P. J. Blanchet et al., Mov. Disord. 1998; 13: 798-802) for different body parts (face, neck, trunk, each limb) and by rating for psychotic states by observing the monkey's attention, reactivity and mobility."}, "[13]": {"tested_on": "Campus Syndrome in the Pietrain pig", "test": "Campus Syndrome in the Pietrain pig (tremor)", "type": "in vivo", "conditions": "accelerometric recording", "from_the_text": "as §2"}, "[14]": {"conditions": "Abnormal Involuntary Movement Scale"}}}
{"compound": "Fc1ccc(-c2cncc(CNC[C@H]3CCc4ccccc4O3)c2)cc1", "note": "[(R)-(−)-2-[5-(4-fluorophenyl)-3-pyridylmethylaminomethyl]-chromane]", "values": [{"measurement": "induction of catalepsy", "setting": "rats", "result": "does not induce any catalepsy"}, {"measurement": "IC50", "setting": "5-HT1A receptor [1]", "result": 1, "unit": "nM"}, {"measurement": "akinesia", "setting": "[2]", "result": "dose-dependently reduced"}, {"measurement": "distance traveled and time active", "setting": "[2]; activity meters", "result": "restored distance traveled and time active to about the level of normal animals"}, {"measurement": "muscle tone enhanced by haloperidol", "setting": "[3]", "result": "decreased"}, {"measurement": "prevention of catalepsy induced by conventional antidopaminergic drugs", "setting": "[4]", "result": "able to prevent catalepsy"}, {"measurement": "reversal of already existing catalepsy induced by conventional antidopaminergic drugs such as haloperidol", "setting": "[4]", "result": "reverses already existing catalepsy"}, {"measurement": "affinity to the dopamine D3 receptor", "setting": "dopamine D3 receptor", "result": "high affinity"}, {"measurement": "extrapyramidal motor side effects (dystonia, dyskinesias, akathisia, bradykinesia)", "setting": "[5]", "result": "dose-dependently reduced"}, {"measurement": "parkinsonian symptoms (Laval University Disability Scale)", "setting": "[6]", "result": "reduced all the parkinsonian symptoms"}, {"measurement": "total activity", "setting": "[6]", "result": "increased"}, {"measurement": "D2 antagonism", "setting": "D2", "result": "exhibit a D2 antagonism under increased doses"}, {"measurement": "oxotremorine-induced tremors", "setting": "[7]", "result": "inhibited"}, {"measurement": "turning behavior induced by amphetamine", "setting": "[8]", "result": "dose-dependently antagonized"}, {"measurement": "turning behavior induced by apomorphine", "setting": "[8]", "result": "dose-dependently antagonized"}, {"measurement": "potency as agonist at the 5-HT1A receptor relative to buspirone", "setting": "5-HT1A receptor [9]", "result": 30, "unit": "fold"}, {"measurement": "number of auditory-evoked myoclonic jerks", "setting": "[10]", "result": "dose-dependently reduced"}, {"measurement": "number of spontaneous myoclonic jerks", "setting": "[10]", "result": "dose-dependently reduced"}, {"measurement": "severity of dystonic symptoms", "setting": "mutant dystonic hamster", "result": "dose-dependently reduced"}, {"measurement": "locomotor activity", "setting": "Weaver mutant mouse", "result": "enhanced"}, {"measurement": "nocturnal akinesia (hypoactivity)", "setting": "[11]; after four injections of 3-NP (late Huntington's disease)", "result": "reduced"}, {"measurement": "nocturnal hyperactivity", "setting": "[11]; after two injections of 3-NP (early Huntington's disease)", "result": "reduced"}, {"measurement": "dystonic dyskinesias", "setting": "[12]; [14]", "result": "reduced"}, {"measurement": "overall choreiform dyskinesias", "setting": "[12]; [14]", "result": "reduced"}, {"measurement": "psychotic states", "setting": "[12]; rating of attention, reactivity and mobility", "result": "reduced"}, {"measurement": "tremor when standing and during locomotion", "setting": "[13]", "result": "reduced disabling tremor"}]}
